# Measurements: patent publication US20250243180A1, “TARGETED PROTEIN DEGRADATION” (Monte Rosa Therapeutics AG, priority 2023, published 2025)
# Where a name gives a salt, the structure may show the parent alone. Read-outs that look alike come from different tables or passages of the source.
# Key:
# [1] = biological target: NEK7 (Homo sapiens (Human), UniProt Q8TDX7+Q96SW2); experiment: NEK7 NanoBiT degradation assay in Cal51 NEK7 NanoBiT cell line; format: cell-based; conditions: Cal51 NEK7 NanoBiT cells, 24 hours; for Dmax: CAL-51
# NEK7, sequence (Q8TDX7 whole entry): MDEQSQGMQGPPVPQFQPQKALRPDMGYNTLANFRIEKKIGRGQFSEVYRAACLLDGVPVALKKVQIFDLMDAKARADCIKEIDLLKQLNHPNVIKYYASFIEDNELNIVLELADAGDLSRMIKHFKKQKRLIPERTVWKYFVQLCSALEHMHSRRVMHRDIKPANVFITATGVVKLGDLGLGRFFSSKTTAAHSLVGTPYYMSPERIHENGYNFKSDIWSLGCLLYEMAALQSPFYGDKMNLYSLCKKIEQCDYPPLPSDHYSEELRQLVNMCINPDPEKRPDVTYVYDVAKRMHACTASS
# NEK7, sequence (Q96SW2 whole entry): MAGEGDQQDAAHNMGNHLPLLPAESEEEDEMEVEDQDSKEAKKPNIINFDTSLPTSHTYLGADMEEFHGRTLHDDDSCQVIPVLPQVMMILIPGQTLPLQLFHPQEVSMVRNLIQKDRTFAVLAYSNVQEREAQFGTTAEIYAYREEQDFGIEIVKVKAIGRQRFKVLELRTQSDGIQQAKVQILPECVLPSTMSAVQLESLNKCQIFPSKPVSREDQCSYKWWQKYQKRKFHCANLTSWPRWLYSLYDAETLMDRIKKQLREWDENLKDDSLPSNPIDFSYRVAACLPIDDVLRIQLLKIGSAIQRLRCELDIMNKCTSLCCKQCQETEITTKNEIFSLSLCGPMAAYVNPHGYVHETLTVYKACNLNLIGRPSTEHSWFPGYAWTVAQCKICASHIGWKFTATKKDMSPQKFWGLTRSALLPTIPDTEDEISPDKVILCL
# NEK7, sequence (Q16531 2-1140 partner): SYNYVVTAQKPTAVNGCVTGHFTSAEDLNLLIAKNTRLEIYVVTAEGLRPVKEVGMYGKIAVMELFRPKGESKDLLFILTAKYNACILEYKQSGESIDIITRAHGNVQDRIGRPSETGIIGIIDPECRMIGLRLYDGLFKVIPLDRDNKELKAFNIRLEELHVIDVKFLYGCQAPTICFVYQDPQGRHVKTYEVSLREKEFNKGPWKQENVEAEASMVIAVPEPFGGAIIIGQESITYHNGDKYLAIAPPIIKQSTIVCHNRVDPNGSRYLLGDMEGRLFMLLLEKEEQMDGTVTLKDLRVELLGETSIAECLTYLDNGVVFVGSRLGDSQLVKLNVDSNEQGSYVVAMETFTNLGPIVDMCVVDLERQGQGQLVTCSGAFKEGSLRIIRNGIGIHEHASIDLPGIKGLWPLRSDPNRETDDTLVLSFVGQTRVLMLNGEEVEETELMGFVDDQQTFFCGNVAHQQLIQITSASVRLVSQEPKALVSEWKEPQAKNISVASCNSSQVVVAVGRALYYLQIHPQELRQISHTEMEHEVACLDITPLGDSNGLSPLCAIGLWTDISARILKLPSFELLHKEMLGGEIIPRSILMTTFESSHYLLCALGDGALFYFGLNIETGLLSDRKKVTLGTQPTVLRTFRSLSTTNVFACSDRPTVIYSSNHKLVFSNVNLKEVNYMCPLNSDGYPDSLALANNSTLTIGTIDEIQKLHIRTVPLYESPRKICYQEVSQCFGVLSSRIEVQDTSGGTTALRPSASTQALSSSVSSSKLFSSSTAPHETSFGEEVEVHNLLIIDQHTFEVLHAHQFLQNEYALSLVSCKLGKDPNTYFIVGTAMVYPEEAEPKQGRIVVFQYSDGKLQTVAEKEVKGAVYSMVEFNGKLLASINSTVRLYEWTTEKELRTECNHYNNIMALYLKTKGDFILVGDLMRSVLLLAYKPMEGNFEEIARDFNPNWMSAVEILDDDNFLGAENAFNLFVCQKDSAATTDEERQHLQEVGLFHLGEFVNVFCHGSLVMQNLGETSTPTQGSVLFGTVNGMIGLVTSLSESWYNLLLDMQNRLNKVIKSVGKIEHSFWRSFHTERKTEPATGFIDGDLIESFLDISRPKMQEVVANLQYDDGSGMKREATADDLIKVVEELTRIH
# Summary of the method: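 Cal51 cells with CRISPR knock-in HiBiT-tagged endogenous NEK7 plus stable LgBiT, in live-cell Endurazine medium, seeded 16 h before dosing. Compounds at final 1 μM to 0.05 nM for 24 h at 37 °C, then luminescence read. Response normalized to plate controls and fitted with a 4-parameter logistic giving EC50.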
# [2] = biological target: CRBN-DDB1 (Homo sapiens (Human), UniProt Q96SW2); experiment: Compound binding to CRBN by HTRF assay
# CRBN-DDB1, sequence (Q96SW2 whole entry): as the sequence (Q96SW2 whole entry) above
# CRBN-DDB1, sequence (Q16531 whole entry partner): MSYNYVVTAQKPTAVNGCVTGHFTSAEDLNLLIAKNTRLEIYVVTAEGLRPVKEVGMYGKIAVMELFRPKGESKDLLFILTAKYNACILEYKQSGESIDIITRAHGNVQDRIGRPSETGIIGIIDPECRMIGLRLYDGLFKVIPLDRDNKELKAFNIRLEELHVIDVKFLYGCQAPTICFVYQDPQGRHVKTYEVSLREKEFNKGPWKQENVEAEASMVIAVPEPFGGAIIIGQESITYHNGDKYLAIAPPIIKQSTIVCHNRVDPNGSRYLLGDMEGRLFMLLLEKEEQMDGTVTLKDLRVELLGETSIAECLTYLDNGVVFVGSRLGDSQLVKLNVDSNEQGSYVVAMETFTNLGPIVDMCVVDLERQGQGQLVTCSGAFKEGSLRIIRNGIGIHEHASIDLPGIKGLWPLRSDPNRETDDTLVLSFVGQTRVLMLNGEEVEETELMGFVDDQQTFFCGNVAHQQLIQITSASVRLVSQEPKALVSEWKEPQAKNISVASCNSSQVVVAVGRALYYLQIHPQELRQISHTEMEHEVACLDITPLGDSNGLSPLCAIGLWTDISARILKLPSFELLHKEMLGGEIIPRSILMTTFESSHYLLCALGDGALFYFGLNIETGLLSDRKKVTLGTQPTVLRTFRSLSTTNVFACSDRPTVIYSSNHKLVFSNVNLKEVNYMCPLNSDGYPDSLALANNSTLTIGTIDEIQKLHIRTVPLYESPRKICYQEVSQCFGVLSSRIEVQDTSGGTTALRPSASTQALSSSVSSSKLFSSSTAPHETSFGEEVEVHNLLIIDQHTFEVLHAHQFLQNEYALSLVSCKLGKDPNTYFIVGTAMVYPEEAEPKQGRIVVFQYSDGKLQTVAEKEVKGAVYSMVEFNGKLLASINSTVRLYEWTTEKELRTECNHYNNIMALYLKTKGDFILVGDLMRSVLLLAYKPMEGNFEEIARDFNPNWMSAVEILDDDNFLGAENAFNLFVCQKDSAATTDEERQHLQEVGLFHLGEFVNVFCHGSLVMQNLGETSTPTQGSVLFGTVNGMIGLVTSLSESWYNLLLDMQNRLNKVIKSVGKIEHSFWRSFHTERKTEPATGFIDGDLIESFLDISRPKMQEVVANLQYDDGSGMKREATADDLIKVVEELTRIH
# Summary of the method: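 HTRF displacement of Cy5-thalidomide probe (100 nM) from His-tagged CRBN-DDB1 (2.5 nM) with anti-His terbium cryptate, in HEPES/NaCl/TCEP/EDTA/Tween20 buffer; 11-point 1:3 dilution series, 30 min at ambient temperature. Signal (665/620 nm) normalized to lenalidomide and DMSO controls; EC50 fitted, Ki by Cheng-Prusoff from geometric mean EC50.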
# [3] = NEK7 degradation, read-out: NanoBiT Dmax
# [4] = NEK7 degradation, read-out: NanoBiT DC50
Structure (SMILES),Dmax ([1]; read-out: NEK7 NanoBiT Dmax) [%],"Dmax [1, 3] [%]",DC50 ([1]; read-out: NEK7 NanoBiT DC50) [nM],"DC50 [1, 4] [nM]",EC50 [2] [nM],"EC50 ([2]; HTRF class, Cereblon binding) [nM]"
"CC(C)(C(=O)NCc1cc(Cl)c(C2CCC(=O)NC2=O)c(Cl)c1)c1ncc(CO)cn1 (stereo not drawn) [Compound 231, N-(3,5-dichloro-4-(2,6-dioxopiperidin-3-yl)benzyl)-2-(5-(hydroxymethyl)pyrimidin-2-yl)-2-methylpropanamide]",82,> 75,23,≤ 100,140,100 to 1000
Cc1cc(C(C)(C)C(=O)NCc2cc(Cl)c(C3CCC(=O)NC3=O)c(Cl)c2)cc(=O)n1C (stereo not drawn) [Compound 53],92,> 75,11,≤ 100,190,100 to 1000
"CC(C)(C(=O)NCc1cc(Cl)c(C2CCC(=O)NC2=O)c(Cl)c1)c1ccc(C(F)F)cn1 (stereo not drawn) [Compound 4, N-(3,5-dichloro-4-(2,6-dioxopiperidin-3-yl)benzyl)-2-(5-(difluoromethyl)pyridin-2-yl)-2-methylpropanamide]",94,> 75,3,≤ 100,120,100 to 1000
"CC(C)(C(=O)NCc1cc(Cl)c(C2CCC(=O)NC2=O)c(Cl)c1)N1CCc2ccccc21 (stereo not drawn) [Compound 166, N-(3,5-dichloro-4-(2,6-dioxopiperidin-3-yl)benzyl)-2-(indolin-1-yl)-2-methylpropanamide]",56,50 to 75,203,100 to 1000,90,≤ 100
Cc1ccc(C(C)(C)C(=O)NCc2cc(Cl)c(C3CCC(=O)NC3=O)c(Cl)c2)nn1 (stereo not drawn) [Compound 12],91,> 75,8,≤ 100,170,100 to 1000
CC(C)(C(=O)NCc1cc(Cl)c(C2CCC(=O)NC2=O)c(Cl)c1)c1nnc(C(F)F)o1 (stereo not drawn) [Compound 200],74,50 to 75,46,≤ 100,170,100 to 1000
"CC(C)(C(=O)NCc1cc(Cl)c(C2CCC(=O)NC2=O)c(Cl)c1)c1cccnn1 (stereo not drawn) [Compound 7, N-(3,5-dichloro-4-(2,6-dioxopiperidin-3-yl)benzyl)-2-methyl-2-(pyridazin-3-yl)propanamide]",72,50 to 75,61,≤ 100,150,100 to 1000
COc1cc(C(C)(C)C(=O)NCc2cc(Cl)c(C3CCC(=O)NC3=O)c(Cl)c2)ccn1 (stereo not drawn) [Compound 98],95,> 75,3,≤ 100,110,100 to 1000
Cn1c(=O)[nH]c2cc(C(C)(C)C(=O)NCc3cc(Cl)c(C4CCC(=O)NC4=O)c(Cl)c3)ccc21 (stereo not drawn) [Compound 72],90,> 75,11,≤ 100,470,100 to 1000
CC(C)(C(=O)NCc1ccc(C2CCC(=O)NC2=O)c(Cl)c1)c1ccc(F)cc1 (stereo not drawn) [Compound 30],92,> 75,12,≤ 100,350,100 to 1000
CC(C)(C(=O)NCc1cc(Cl)c(C2CCC(=O)NC2=O)c(Cl)c1)c1ccc(S(C)(=O)=O)cc1 (stereo not drawn) [Compound 66],96,> 75,3,≤ 100,90,≤ 100
CC(C)(C(=O)NCc1cc(Cl)c(C2CCC(=O)NC2=O)c(Cl)c1)c1ccc2ncsc2c1 (stereo not drawn) [Compound 74],97,> 75,1,≤ 100,30,≤ 100
CC(C)(C(=O)NCc1cc(F)c(C2CCC(=O)NC2=O)c(Cl)c1)c1cnc(OC(F)(F)F)cn1 (stereo not drawn) [Compound 264],68,50 to 75,100,≤ 100,130,100 to 1000
"CC(C)(C(=O)NCc1cc(Cl)c([C@H]2CCC(=O)NC2=O)c(Cl)c1)c1ncccn1 (single isomer, unassigned) [Compound 180]",81,> 75,16,≤ 100,120,100 to 1000
CC(C)(C(=O)NCc1ccc(C2CCC(=O)NC2=O)c(Cl)c1)c1ccncc1 (stereo not drawn) [Compound 109],69,50 to 75,250,100 to 1000,480,100 to 1000
Cn1cncc1C(C)(C)C(=O)NCc1cc(Cl)c(C2CCC(=O)NC2=O)c(Cl)c1 (stereo not drawn) [Compound 123],70,50 to 75,100,100 to 1000,610,100 to 1000
CC(F)(F)c1ccc(C(C)(C)C(=O)NCc2cc(F)c(C3CCC(=O)NC3=O)c(Cl)c2)nn1 (stereo not drawn) [Compound 277],61,50 to 75,155,100 to 1000,180,100 to 1000
Cc1nc(C(C)(C)C(=O)NCc2cc(Cl)c(C3CCC(=O)NC3=O)c(Cl)c2)oc1C (stereo not drawn) [Compound 212],90,> 75,6,≤ 100,70,≤ 100
Cc1cc(C(C)(C)C(=O)NCc2cc(Cl)c(C3CCC(=O)NC3=O)c(Cl)c2)no1 (stereo not drawn) [Compound 145],86,> 75,10,≤ 100,430,100 to 1000
CC(C)(C(=O)NCc1cc(F)c(C2CCC(=O)NC2=O)c(Cl)c1)c1ccncc1 (stereo not drawn) [Compound 106],80,> 75,26,≤ 100,240,100 to 1000
"Cc1cnc(C(C)(C)C(=O)NCc2cc(Cl)c([C@]3(F)CCC(=O)NC3=O)c(Cl)c2)nc1 (single isomer, unassigned) [Compound 243]",9,≤ 50,1000,> 1000,≥ 10000,> 1000
"Cc1nc(CNC(=O)C(C)(C)c2ccccc2)cc(Cl)c1C1CCC(=O)NC1=O (stereo not drawn) [Compound 239, N-((4-chloro-5-(2,6-dioxopiperidin-3-yl)-6-methylpyridin-2-yl)methyl)-2-methyl-2-phenylpropanamide]",47,≤ 50,909,100 to 1000,660,100 to 1000
CC(C)(C(=O)NCc1cc(Cl)c(C2CCC(=O)NC2=O)c(Cl)c1)c1ccc2occc2c1 (stereo not drawn) [Compound 87],97,> 75,0.1,≤ 100,30,≤ 100
"Cc1cc(CNC(=O)C(C)(C)c2ccncc2)cc(Cl)c1C1CCC(=O)NC1=O (stereo not drawn) [Compound 107, N-(3-chloro-4-(2,6-dioxopiperidin-3-yl)-5-methylbenzyl)-2-methyl-2-(pyridin-4-yl)propanamide]",82,> 75,28,≤ 100,440,100 to 1000
CC(C)(C(=O)NCc1cc(Cl)c(C2CCC(=O)NC2=O)c(Cl)c1)c1cc(F)[nH]c(=O)c1 (stereo not drawn) [Compound 59],87,> 75,28,≤ 100,140,100 to 1000
CN(C)S(=O)(=O)c1ccc(C(C)(C)C(=O)NCc2cc(Cl)c(C3CCC(=O)NC3=O)c(Cl)c2)cc1 (stereo not drawn) [Compound 58],92,> 75,6,≤ 100,130,100 to 1000
"CC(C)(C(=O)NCc1cc(Cl)c(C2CCC(=O)NC2=O)c(Cl)c1)c1ccsc1 (stereo not drawn) [Compound 126, N-(3,5-dichloro-4-(2,6-dioxopiperidin-3-yl)benzyl)-2-methyl-2-(thiophen-3-yl)propanamide]",94,> 75,3,≤ 100,50,≤ 100
"O=C1CCC(c2c(Cl)cc(CNC(=O)C3(c4ncccn4)CCC3)cc2Cl)C(=O)N1 (stereo not drawn) [Compound 169, N-(3,5-dichloro-4-(2,6-dioxopiperidin-3-yl)benzyl)-1-(pyrimidin-2-yl)cyclobutane-1-carboxamide]",75,50 to 75,42,≤ 100,180,100 to 1000
"CN1CCC(C(=O)NCc2cc(Cl)c(C3CCC(=O)NC3=O)c(Cl)c2)(c2ccc(F)cc2)CC1 (stereo not drawn) [Compound 135, N-(3,5-dichloro-4-(2,6-dioxopiperidin-3-yl)benzyl)-4-(4-fluorophenyl)-1-methylpiperidine-4-carboxamide formate]",71,50 to 75,16,≤ 100,20,≤ 100
CC(C)(C(=O)NCc1cc(Cl)c(C2CCC(=O)NC2=O)c(Cl)c1)c1cccc(NS(C)(=O)=O)c1 (stereo not drawn) [Compound 54],97,> 75,1,≤ 100,60,≤ 100
